In patent US20130316946A1, “EXTENDED RECOMBINANT POLYPEPTIDE-MODIFIED C-PEPTIDE” (Cebix, Inc., priority 2012, published 2013):

Assays:
[1] = in vivo; cited from earlier work
[2] = Pharmacokinetics of unmodified C-peptide in beagle dogs after a single S.C. dose; assay type: in vivo
Method: A pharmacokinetic (PK) study was conducted to determine the C-peptide PK profile with unmodified C-peptide in beagle dogs.
Methods: Two male and one female dog received S.C. the unmodified synthetic human C-peptide (0.5 mg/kg; 0.025 mL/kg) formulated in phosphate buffered saline (20 mg/mL). Dogs were bled by venipuncture and blood samples were collected at predetermined time points over 14 days. Plasma samples were obtained after centrifugation of the blood (3,000 rpm for 10 minutes) and stored at −80° C. until analysis. A CRO with Good Laboratory Practice (GLP) capabilities (MicroConstants, Inc.; San Diego, Calif.) performed the bioanalytical work. Plasma levels of C-peptide were measured by an enzyme-linked immunosorbant assay (ELISA) technique based on a commercial kit for human C-peptide determination (Mercodia; catalog number 10-1136-01) using the manufacturer's instructions. Results were expressed as C-peptide concentrations. For the PK analysis, the below quantitation level (BQL) was treated as zero and nominal time points were used for all calculations. PK parameters were determined by standard model independent methods based on the individual plasma concentration-time data for each animal using model 200 in WinNonlin Professional 5.2.1 (Pharsight Corp., Mountain View, Calif.).

[3] = Stability of C-peptide-XTEN in monkey plasma; assay type: in vitro ADME; settings: 37° C., over 7 days, SDS PAGE / Western
Method: A fusion protein containing XTEN_AE864 fused to the N-terminus of C-peptide is incubated in monkey plasma and rat kidney lysate for up to 7 days at 37° C. Samples are withdrawn at time 0, Day 1 and Day 7 and analyzed by SDS PAGE followed by detection using Western analysis and detection with antibodies against C-peptide. […] The in vivo stability of the fusion protein is tested in plasma samples wherein the C-peptide_AE864 is immunoprecipitated and analyzed by SDS PAGE as described above.

[4] = Stability of C-peptide-XTEN in rat kidney lysate; assay type: in vitro ADME; settings: 37° C., over 3 days, SDS PAGE / Western
Method: A fusion protein […] followed by detection using Western analysis and detection with antibodies against C-peptide. […] The in vivo stability of the fusion protein is tested in plasma samples wherein the C-peptide_AE864 is immunoprecipitated and analyzed by SDS PAGE as described above.

Question: For Glulisine, which “peak time of effect” value [1] is on record?
Answer: Its value is “around 30 minutes”.

Question: For Glargine insulin, which duration of activity [1] is on record?
Answer: The duration of activity was 24 h.

Question: And the “peak time of effect” value [1]?
Answer: Its value is “no peak effect”.

Question: With Regular insulin as the molecule, how does the onset of action [1] read?
Answer: Its onset of action is 30 to 60 min.

Question: Which “peak time of effect” value [1] does the source give for Lispro here?
Answer: The value was “around 30 minutes”.

Question: For `CC(C)C[C@H](NC(=O)[C@H](C)NC(=O)[C@H](CC(C)C)NC(=O)[C@@H]1CCCN1C(=O)[C@H](CCC(N)=O)NC(=O)[C@H](CC(C)C)NC(=O)[C@H](CO)NC(=O)CNC(=O)[C@H](C)NC(=O)CNC(=O)[C@@H]1CCCN1C(=O)CNC(=O)CNC(=O)CNC(=O)[C@H](CC(C)C)NC(=O)[C@H](CCC(=O)O)NC(=O)[C@@H](NC(=O)[C@H](CCC(N)=O)NC(=O)CNC(=O)[C@@H](NC(=O)[C@H](CCC(N)=O)NC(=O)[C@H](CC(C)C)NC(=O)[C@H](CC(=O)O)NC(=O)[C@H](CCC(=O)O)NC(=O)[C@H](C)NC(=O)[C@@H](N)CCC(=O)O)C(C)C)C(C)C)C(=O)N[C@@H](CCC(=O)O)C(=O)NCC(=O)N[C@@H](CO)C(=O)N[C@@H](CC(C)C)C(=O)N[C@@H](CCC(N)=O)C(=O)O` [CP-AQ, human C-peptide], which “circulating levels of C-peptide below quantitation level (BQL)” value ([2]; dog, in vivo, sc) is on record?
Answer: Its value is “BQL within half a day”.

Question: What about the “tolerability (clinical abnormalities)” value ([2]; dogs, single S.C. dose 0.5 mg/kg) of the same molecule?
Answer: The value was “well tolerated”.

Question: With Aspart as the molecule, how does the “peak time of effect” value [1] read?
Answer: Its value is “around 30 minutes”.

B1: AE864: XTEN polypeptide of 864 amino acid residues, SEQ ID NO:70 (protein)
chain: GSPAGSPTSTEEGTSESATPESGPGTSTEPSEGSAPGSPAGSPTSTEEGTSTEPSEGSAPGTSTEPSEGSAPGTSESATPESGPGSEPATSGSETPGSEPATSGSETPGSPAGSPTSTEEGTSESATPESGPGTSTEPSEGSAPGTSTEPSEGSAPGSPAGSPTSTEEGTSTEPSEGSAPGTSTEPSEGSAPGTSESATPESGPGTSTEPSEGSAPGTSESATPESGPGSEPATSGSETPGTSTEPSEGSAPGTSTEPSEGSAPGTSESATPESGPGTSESATPESGPGSPAGSPTSTEEGTSESATPESGPGSEPATSGSETPGTSESATPESGPGTSTEPSEGSAPGTSTEPSEGSAPGTSTEPSEGSAPGTSTEPSEGSAPGTSTEPSEGSAPGTSTEPSEGSAPGSPAGSPTSTEEGTSTEPSEGSAPGTSESATPESGPGSEPATSGSETPGTSESATPESGPGSEPATSGSETPGTSESATPESGPGTSTEPSEGSAPGTSESATPESGPGSPAGSPTSTEEGSPAGSPTSTEEGSPAGSPTSTEEGTSESATPESGPGTSTEPSEGSAPGTSESATPESGPGSEPATSGSETPGTSESATPESGPGSEPATSGSETPGTSESATPESGPGTSTEPSEGSAPGSPAGSPTSTEEGTSESATPESGPGSEPATSGSETPGTSESATPESGPGSPAGSPTSTEEGSPAGSPTSTEEGTSTEPSEGSAPGTSESATPESGPGTSESATPESGPGTSESATPESGPGSEPATSGSETPGSEPATSGSETPGSPAGSPTSTEEGTSTEPSEGSAPGTSTEPSEGSAPGSEPATSGSETPGTSESATPESGPGTSTEPSEGSAP
modifications: AE864 XTEN polypeptide
Question: For B1, which “degradation in monkey plasma” value [3] is on record?
Answer: Its value is “negligible signs of degradation”.

Question: What about the “degradation in rat kidney lysate” value [4] of the same molecule?
Answer: Its value is “rapidly degraded”.
